Experimental data published in US11098033B2, “Ku inhibitors and their use” (INDIANA UNIVERSITY RESEARCH AND TECHNOLOGY CORPORATION, priority 2016, dated 2021).
“And” between values parts separate entries of the source, which are not always exact repeats. Equal values may be shown once. Read-outs that look alike come from different tables or passages of the source.

What was measured:
[1] = tested on: NHEJ activity in H460 cells; experiment: Host cell reactivation assay of NHEJ mediated re-circularization of a linearized GFP plasmid; type: cell-based
Source text: Disruption of Ku-DNA binding should result in inhibition of NHEJ activity, and to test this inhibition we will employ a host cell reactivation assay. This assay utilizes a linearized plasmid encoding a GFP gene that is transfected into the cell and expressed upon NHEJ mediated re-circularization of the plasmid (Sears, CA., 2012 and Woods, D., 2015). Co-transfection of a circular RFP plasmid accounts for differences in transfection efficiency, and NHEJ mediated repair of the GFP plasmid can be quantified by assessing the ratio of green: red cells. This assay will be used to assess the Ku inhibitor compounds in H460 and HEK-293 cells, and the data obtained from these experiments will allow us to determine the sensitivity of the chemical compounds and effect of Ku inhibition on NHEJ activity. As this is a cellular assay, we will also utilize this assay to do a series of time course experiments to determine the optimal time to deliver the inhibitor to cells in order to achieve maximum inhibition of NHEJ activity.

[2] = target: T1, Recombinant human Ku heterodimer (Homo sapiens, UniProt P12956+P13010); experiment: Ku-DNA binding assay; conditions: several values in a cell = separate determinations, read-out: IC50
T1 construct: made in house; host or cells: insect cells infected with recombinant baculovirus
Source text: Ku is a DNA end-binding protein that is essential for the repair of DNA double strand breaks via the NHEJ pathway. The mechanism of DNA binding by Ku is via a toroid structure that encircles double-stranded DNA from a terminus.

[3] = tested on: NHEJ end joining in cell free extract from HEK 293; experiment: In vitro NHEJ (end joining) assay with cell free extract; type: biochemical; conditions: linearized plasmid DNA (3 kbp), HEK 293 cell free extract pre-incubated with inhibitor, ATP; read-out: IC50 of inhibition of end joining
Description: Radiolabeled linearized DNA was incubated with whole cell extracts with increasing amounts of inhibitor NG-02-132.
A linearized plasmid DNA (3 kbp) is incubated with a cell free extract prepared from a NHEJ competent cell (HEK 293) and ATP. The results presented in FIG. 8 show the substrate alone in lane 1 and the degree of end joining control reactions as evidenced by the formation of plasmid multimers.

[4] = tested on: H460 non-small cell lung cancer cells, EMX1 locus; experiment: Crispr/Cas9 mediated gene insertion at the EMX1 locus; type: cell-based
Source text: To assess the effect of Ku inhibitors on genome engineering efficiency we designed an assay to quantify the recombination efficiency of a Crispr/Cas9 mediated gene insertion event. A donor insert of 2.2 kbp encoding puromycin resistance and a GFP gene was flanked by 800 bp homology arms directing the insert to the EMX1 locus. A guide RNA directing the Cas9 nuclease to the EMX1 gene was purchased and co-transfected with the donor construct and Cas9 expressing plasmid in H460 non-small cell lung cancer cells that were either treated with vehicle or 20 uM 205. 24 hours later, cells were placed under selection with puromycin for 5 days and plated in 96-well plates for single cell cloning. Clones were expanded, genomic DNA isolated and location specific PCR analysis was performed to assess accurate gene insertion at the EMX1 locus.

[5] = Table 2, synthesized derivatives
[6] = Table 1, purchased second generation inhibitors

T1 sequence (P12956 whole entry): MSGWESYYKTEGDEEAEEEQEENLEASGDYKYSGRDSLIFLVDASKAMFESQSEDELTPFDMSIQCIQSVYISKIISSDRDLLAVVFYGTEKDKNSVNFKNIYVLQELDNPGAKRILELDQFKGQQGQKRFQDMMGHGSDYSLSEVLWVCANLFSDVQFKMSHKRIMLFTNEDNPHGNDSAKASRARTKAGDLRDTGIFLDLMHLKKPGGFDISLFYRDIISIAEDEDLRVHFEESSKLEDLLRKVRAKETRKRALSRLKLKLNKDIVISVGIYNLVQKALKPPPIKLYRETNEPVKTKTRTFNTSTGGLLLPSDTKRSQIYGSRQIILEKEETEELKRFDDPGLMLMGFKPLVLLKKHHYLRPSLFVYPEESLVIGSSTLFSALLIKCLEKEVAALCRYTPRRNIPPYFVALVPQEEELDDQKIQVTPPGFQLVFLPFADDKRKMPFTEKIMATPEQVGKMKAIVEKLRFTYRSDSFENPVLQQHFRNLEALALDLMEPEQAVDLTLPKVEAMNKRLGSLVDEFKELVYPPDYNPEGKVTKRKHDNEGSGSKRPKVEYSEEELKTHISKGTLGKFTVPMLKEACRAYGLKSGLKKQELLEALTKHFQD
T1 sequence (P13010 whole entry): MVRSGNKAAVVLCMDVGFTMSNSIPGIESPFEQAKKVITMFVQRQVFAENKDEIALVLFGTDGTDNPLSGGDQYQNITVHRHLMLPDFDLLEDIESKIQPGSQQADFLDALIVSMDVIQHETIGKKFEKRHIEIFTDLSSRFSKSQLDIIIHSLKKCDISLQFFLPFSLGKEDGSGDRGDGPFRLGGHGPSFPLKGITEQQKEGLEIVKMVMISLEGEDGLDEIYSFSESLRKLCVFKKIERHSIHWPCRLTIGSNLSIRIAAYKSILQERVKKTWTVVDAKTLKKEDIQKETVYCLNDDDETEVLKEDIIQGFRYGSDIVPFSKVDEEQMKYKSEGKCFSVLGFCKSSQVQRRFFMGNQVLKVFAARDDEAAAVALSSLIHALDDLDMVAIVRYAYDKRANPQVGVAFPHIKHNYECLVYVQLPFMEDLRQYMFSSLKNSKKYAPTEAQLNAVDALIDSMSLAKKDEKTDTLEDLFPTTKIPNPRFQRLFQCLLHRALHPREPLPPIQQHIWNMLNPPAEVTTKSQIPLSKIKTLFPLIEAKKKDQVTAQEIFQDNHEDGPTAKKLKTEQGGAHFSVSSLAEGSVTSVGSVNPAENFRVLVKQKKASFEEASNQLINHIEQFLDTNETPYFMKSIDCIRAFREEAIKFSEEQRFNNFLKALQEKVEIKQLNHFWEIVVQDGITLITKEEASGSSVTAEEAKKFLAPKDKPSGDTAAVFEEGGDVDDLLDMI

Row | Molecule | IC50 [2, 6] | also measured
1 | COc1cccc(NC(=O)c2cc(-c3ccc(/C=C4\C(=O)N(c5cccc(C(=O)O)c5)N=C4C)o3)ccc2Cl)c1 [NG-01-68/02-140/03-180, (Z)-3-(4-((5-(4-Chloro-3-((3-methoxyphenyl)carbamoyl)phenyl)furan-2-yl)methylene)-3-methyl-5-oxo-4,5-dihydro-1H-pyrazol-1-yl)benzoic acid] | – | NHEJ catalyzed repair events ([1]; H460 cells preincubated 2 hours prior to transfection of the reporters, measured 48 hours post transfection, without compound 26%, preliminary data): 17%; reduction of NHEJ catalyzed repair events ([1]; H460 cells, 2 hours preincubation, 48 hours post transfection, from 26% to 17%): 35%; IC50 [2, 5]: 6 µM and 15 µM and 4 µM (2×)
2 | COc1cccc(NC(=O)c2cc(-c3ccc(CC4C(=O)N(c5cccc(C(=O)O)c5)N=C4C)o3)ccc2Cl)c1 (stereo not shown) [NG-02-132/ NG-02-149, 3-(4-((5-(4-Chloro-3-((3-methoxyphenyl)carbamoyl)phenyl)furan-2-yl)methyl)-3-methyl-5-oxo-4,5-dihydro-1H-pyrazol-1-yl)benzoic acid] | – | IC50 [2, 5]: 1 µM (2×) and 4 µM and 6 µM; IC50 [3]: ~15 µM
3 | COc1cccc(NC(=O)c2cc(-c3ccc(CC4C(=O)N(c5cccc(-c6nnn[nH]6)c5)N=C4C)o3)ccc2Cl)c1 (stereo not shown) [NG-03-205, 5-(5-((1-(3-(1H-Tetrazol-5-yl)phenyl)-3-methyl-5-oxo-4,5-dihydro-1H-pyrazol-4-yl)methyl)furan-2-yl)-2-chloro-N-(3-methoxyphenyl)benzamide] | – | IC50 [2, 5]: 13 µM; Efficiency ([4]; +Inhibitor (20 uM), accurate gene insertion at EMX1 locus, −Inhibitor 14%): 80%; In/Out+ ([4]; +Inhibitor (20 uM), clones positive in location specific PCR, −Inhibitor 4): 4; Clones ([4]; +Inhibitor (20 uM), puromycin selection 5 days, single cell cloning, −Inhibitor 28): 5; increase in precise genome insertion efficiency ([4]; H460 cells, 20 uM, versus vehicle): greater than 6 fold
4 | CC1=NN(c2cccc(C(=O)O)c2)C(=O)/C1=C\c1ccc(-c2cc([N+](=O)[O-])ccc2O)o1 [compound 1564, reference compound] | 21 µM and 7 µM | –
5 | CC1=NN(c2cccc(C(=O)O)c2)C(=O)/C1=C\c1ccc(-c2ccc(Cl)c(C(=O)OCc3ccccc3Cl)c2)o1 [compound 2249, reference compound] | 2.9 µM | –
6 | CC1=NN(c2cccc(C(=O)O)c2)C(=O)/C1=C\c1ccc(-c2ccc(C(=O)O)cc2)o1 [compound 2513, reference compound] | 150 µM | –
7 | CCOC(=O)c1cccc(-c2ccc(/C=C3\C(=O)N(c4cccc(C(=O)O)c4)N=C3C)o2)c1 [compound 2714, reference compound] | 9.1 µM | –
8 | CCCOC(=O)c1cc(-c2ccc(/C=C3\C(=O)N(c4cccc(C(=O)O)c4)N=C3C)o2)ccc1Cl [compound 2727, reference compound] | 7.6 µM and 5.7 µM | –
9 | CCOC(=O)c1cc(-c2ccc(/C=C3\C(=O)N(c4cccc(C(=O)O)c4)N=C3C)o2)ccc1Cl [compound 2733, reference compound] | 4.2 µM and 9 µM | –
10 | (Z)-2-chloro-5-(54(1-(3-cyanophenyl)-3-methyl-5-oxo-1,5-dihydro-4H-pyrazol-4-ylidene)methyl)furan-2-yl)-N-(3-methoxyphenyl)benzamide [NG-03-193] | – | IC50 [2, 5]: 25 µM

More lines, main results first:

Row | IC50 [2, 6] | Molecule | also measured
11 | 40 µM and 16 µM | COC(=O)c1cccc(-c2ccc(/C=C3\C(=O)N(c4cccc(C(=O)O)c4)N=C3C(F)(F)F)o2)c1 [compound 2777, reference compound] | –
12 | 6.2 µM and 5 µM | C=CCOC(=O)c1cccc(-c2ccc(/C=C3\C(=O)N(c4ccc(Cl)c(C(=O)O)c4)N=C3C)o2)c1 [compound 2922, reference compound] | –
13 | 11 µM and 3.5 µM | CC1=NN(c2cccc(C(=O)O)c2)C(=O)/C1=C\c1ccc(-c2cccc(C(=O)OC(C)C)c2)o1 [compound 3125, reference compound] | –
14 | 4.3 µM and 8.1 µM | CCOC(=O)c1cccc(-c2ccc(/C=C3\C(=O)N(c4ccc(Cl)c(C(=O)O)c4)N=C3C)o2)c1 [compound 3278, reference compound] | –
15 | 31 µM and 5.7 µM | CC1=NN(c2ccc(Cl)c(C(=O)O)c2)C(=O)/C1=C\c1ccc(-c2cccc(C(=O)OC(C)C)c2)o1 [compound 3315, reference compound] | –
16 | 21.8 µM | CC1=NN(c2ccc(Cl)c(C(=O)O)c2)C(=O)/C1=C\c1ccc(-c2ccc3c(c2)C(=O)OC3)o1 [compound 4770, reference compound] | –
17 | 16.9 µM | C#CCOC(=O)c1cccc(-c2ccc(/C=C3\C(=O)N(c4ccc(Cl)c(C(=O)O)c4)N=C3C)o2)c1 [compound 7026, reference compound] | –
18 | 32 µM and 16 µM and 40 µM | CC1=NN(c2cccc(C(=O)O)c2)C(=O)/C1=C\c1ccc(-c2ccc3c(c2)C(=O)OC3)o1 [compound 7997, reference compound] | –
